# Source: patent US20250049777A1, “PHARMACEUTICALLY ACCEPTABLE SALT AND CRYSTALLINE FORM OF GLP-1 RECEPTOR AGONIST AND PREPARATION METHOD THEREFOR” (JIANGSU HENGRUI PHARMACEUTICALS CO., LTD., priority 2021, published 2025)
# Counter-ions that a name gives are not always drawn. Like-named read-outs stand apart in the source and are kept apart here.
# Legend:
# [1] = Stability of crystal forms of salts under influencing factors (illumination, high temperature, high humidity); format: physicochemical
# From the text: The sampling and investigation period was 30 days.
# [2] = format: physicochemical
# Description: A salt-type sample was sealed with an aluminum foil bag and placed under the conditions of 25° C./60% RH and 40° C./75% RH, respectively, to investigate the stability.
# [3] = Hygroscopicity of crystal forms of salts (DVS, 25° C.); format: physicochemical; conditions: for Crystal form after DVS: 0% to 95% RH
# From the text: According to the description of hygroscopic characteristics and the definition of hygroscopic weight gain in “9103 Guidelines for Hygroscopicity of Pharmaceuticals”, Chinese Pharmacopoeia, Volume IV, 2015 edition, the following are defined: • deliquescent: absorbing enough water to form a liquid; • extremely hygroscopic: having a hygroscopic weight gain of not less than 15%; • hygroscopic: having a hygroscopic weight gain of less than 15% and not less than 2%; • slightly hygroscopic: having a hygroscopic weight gain of less than 2% and not less than 0.2%; and • no or almost no hygroscopicity: having a hygroscopic weight gain of less than 0.2%.
# Surface Measurement Systems intrinsic DVS was used at 25° C. The observed humidity ranged from 0% to 95%. The step was 10%. The criterion was that the mass change dM/dT for each step was less than 0.002%. TMAX was 360 min. Two cycles were carried out.
# [4] = Illumination (4500 Lux), 7 days, open
# [5] = Illumination (4500 Lux), 14 days, open
# [6] = Illumination (4500 Lux), 30 days, open
# [7] = 25° C./60% RH, sealed aluminum foil bag
# [8] = 40° C./75% RH, sealed aluminum foil bag
# [9] = 25° C./60% RH, 1 month, sealed aluminum foil bag
# [10] = 40° C./75% RH, 1 month, sealed aluminum foil bag
# [11] = 40° C./75% RH, 3 months, sealed aluminum foil bag
# [12] = Illumination (4500 Lux), 5 days, open
# [13] = Illumination (4500 Lux), 10 days, open
compound,measurement,setting,value
"O=C(O)c1ccc2nc(CN3CCC(c4cccc5c4O[C@@H](c4ccc(Cl)cc4F)CO5)CC3)n(C[C@@H]3CCO3)c2c1 [Crystal form A of tromethamine salt, 2-((4-((S)-3-(4-chloro-2-fluorophenyl)-2,3-dihydrobenzo[b][1,4]dioxan-5-yl)piperidin-1-yl)methyl)-1-(((S)-oxetan-2-yl)methyl)-1H-benzo[d]imidazole-6-carboxylic acid]",chemical stability,[1],slightly poor chemical stability
same,% Purity,"[1]; 40° C., 7 days, open",96.1%
same,Crystal form,"[1]; 40° C., 7 days, open",Unchanged
same,% Purity,"[1]; 40° C., 14 days, open",91.7%
same,Crystal form,"[1]; 40° C., 14 days, open",Unchanged
same,% Purity,"[1]; 40° C., 30 days, open",87.4%
same,Crystal form,"[1]; 40° C., 30 days, open",Unchanged
same,% Purity,"[1]; 60° C., 7 days, open",93.5%
same,Crystal form,"[1]; 60° C., 7 days, open",Unchanged
same,% Purity,"[1]; 60° C., 14 days, open",88.6%
same,Crystal form,"[1]; 60° C., 14 days, open",Unchanged
same,% Purity,"[1]; 75% RH, 7 days, open",99.4%
same,Crystal form,"[1]; 75% RH, 7 days, open",Unchanged
same,% Purity,"[1]; 75% RH, 14 days, open",99.4%
same,Crystal form,"[1]; 75% RH, 14 days, open",Unchanged
same,% Purity,"[1]; 75% RH, 30 days, open",99.3%
same,Crystal form,"[1]; 75% RH, 30 days, open",Unchanged
same,% Purity,"[1]; 92.5% RH, 7 days, open",99.3%
same,Crystal form,"[1]; 92.5% RH, 7 days, open",Unchanged
same,% Purity,"[1]; 92.5% RH, 14 days, open",99.0%
same,Crystal form,"[1]; 92.5% RH, 14 days, open",Unchanged
same,% Purity,"[1]; 92.5% RH, 30 days, open",98.6%
same,Crystal form,"[1]; 92.5% RH, 30 days, open",Unchanged
same,% Purity,[1]; [4],98.9%
same,Crystal form,[1]; [4],Unchanged
same,% Purity,[1]; [5],97.6%
same,Crystal form,[1]; [5],Unchanged
same,% Purity,[1]; [6],90.8%
same,Crystal form,[1]; [6],Unchanged
same,% Purity,"[1]; Initial condition, 0 days",99.5%
same,physical and chemical stability,[2],good physical and chemical stability
same,Crystal form,[2]; [7],Unchanged
same,Crystal form,[2]; [8],Unchanged
same,hygroscopic weight gain 0.0% RH to 80.0% RH,[3],5.02%
same,Crystal form after DVS,[3],Unchanged
"O=C(O)c1ccc2nc(CN3CCC(c4cccc5c4O[C@@H](c4ccc(Cl)cc4F)CO5)CC3)n(C[C@@H]3CCO3)c2c1 [Crystal form D of tromethamine salt, 2-((4-((S)-3-(4-chloro-2-fluorophenyl)-2,3-dihydrobenzo[b][1,4]dioxan-5-yl)piperidin-1-yl)methyl)-1-(((S)-oxetan-2-yl)methyl)-1H-benzo[d]imidazole-6-carboxylic acid]",% Purity,"[1]; 40° C., 7 days, open",99.5%
same,Crystal form,"[1]; 40° C., 7 days, open",Unchanged
same,% Purity,"[1]; 40° C., 14 days, open",99.3%
same,Crystal form,"[1]; 40° C., 14 days, open",Unchanged
same,% Purity,"[1]; 40° C., 30 days, open",99.3%
same,Crystal form,"[1]; 40° C., 30 days, open",Unchanged
same,% Purity,"[1]; 60° C., 7 days, open",99.4%
same,Crystal form,"[1]; 60° C., 7 days, open",Unchanged
same,% Purity,"[1]; 60° C., 14 days, open",99.1%
same,Crystal form,"[1]; 60° C., 14 days, open",Unchanged
same,% Purity,"[1]; 60° C., 30 days, open",99.0%
same,Crystal form,"[1]; 60° C., 30 days, open",Unchanged
same,% Purity,"[1]; 75% RH, 7 days, open",99.7%
same,Crystal form,"[1]; 75% RH, 7 days, open",Unchanged
same,% Purity,"[1]; 75% RH, 14 days, open",99.6%
same,Crystal form,"[1]; 75% RH, 14 days, open",Unchanged
same,% Purity,"[1]; 75% RH, 30 days, open",99.6%
same,Crystal form,"[1]; 75% RH, 30 days, open",Unchanged
same,% Purity,"[1]; 92.5% RH, 7 days, open",99.5%
same,Crystal form,"[1]; 92.5% RH, 7 days, open",Unchanged
same,% Purity,"[1]; 92.5% RH, 14 days, open",99.4%
same,Crystal form,"[1]; 92.5% RH, 14 days, open",Unchanged
same,% Purity,"[1]; 92.5% RH, 30 days, open",99.0%
same,Crystal form,"[1]; 92.5% RH, 30 days, open",Unchanged
same,% Purity,[1]; [4],99.6%
same,Crystal form,[1]; [4],Unchanged
same,% Purity,[1]; [5],99.6%
same,Crystal form,[1]; [5],Unchanged
same,% Purity,[1]; [6],99.6%
same,Crystal form,[1]; [6],Unchanged
same,% Purity,"[1]; Initial condition, 0 days",99.7%
same,physical and chemical stability,[2],good physical and chemical stability
same,% Purity,[2]; [9],99.7%
same,% Purity,"[2]; 25° C./60% RH, 3 months, sealed aluminum foil bag",99.7%
same,Crystal form,[2]; [7],Unchanged
same,% Purity,[2]; [10],99.5%
same,% Purity,[2]; [11],99.1%
same,Crystal form,[2]; [8],Unchanged
same,% Purity,[2]; Initial condition,99.7%
same,hygroscopic weight gain 0.0% RH to 80.0% RH,[3],2.45%
same,Crystal form after DVS,[3],Unchanged
"O=C(O)c1ccc2nc(CN3CCC(c4cccc5c4O[C@@H](c4ccc(Cl)cc4F)CO5)CC3)n(C[C@@H]3CCO3)c2c1 [Crystal form I of hydrochloride salt, 2-((4-((S)-3-(4-chloro-2-fluorophenyl)-2,3-dihydrobenzo[b][1,4]dioxan-5-yl)piperidin-1-yl)methyl)-1-(((S)-oxetan-2-yl)methyl)-1H-benzo[d]imidazole-6-carboxylic acid]",% Purity,"[1]; 40° C., 5 days, open",98.0%
same,Crystal form,"[1]; 40° C., 5 days, open",Unchanged
same,% Purity,"[1]; 40° C., 10 days, open",98.1%
same,Crystal form,"[1]; 40° C., 10 days, open",Unchanged
same,% Purity,"[1]; 40° C., 30 days, open",97.8%
same,Crystal form,"[1]; 40° C., 30 days, open",Unchanged
same,% Purity,"[1]; 60° C., 5 days, open",97.6%
same,Crystal form,"[1]; 60° C., 5 days, open",Unchanged
same,% Purity,"[1]; 60° C., 10 days, open",97.7%
same,Crystal form,"[1]; 60° C., 10 days, open",Unchanged
same,% Purity,"[1]; 60° C., 30 days, open",97.7%
same,Crystal form,"[1]; 60° C., 30 days, open",Unchanged
same,% Purity,"[1]; 75% RH, 5 days, open",98.1%
same,Crystal form,"[1]; 75% RH, 5 days, open",Unchanged
same,% Purity,"[1]; 75% RH, 10 days, open",98.0%
same,Crystal form,"[1]; 75% RH, 10 days, open",Unchanged
same,% Purity,"[1]; 75% RH, 30 days, open",98.1%
same,Crystal form,"[1]; 75% RH, 30 days, open",Unchanged
same,% Purity,"[1]; 92.5% RH, 5 days, open",98.1%
same,Crystal form,"[1]; 92.5% RH, 5 days, open",Unchanged
same,% Purity,"[1]; 92.5% RH, 10 days, open",97.4%
same,Crystal form,"[1]; 92.5% RH, 10 days, open",Unchanged
same,% Purity,"[1]; 92.5% RH, 30 days, open",96.9%
same,Crystal form,"[1]; 92.5% RH, 30 days, open",Unchanged
same,% Purity,[1]; [12],97.9%
same,Crystal form,[1]; [12],Unchanged
same,% Purity,[1]; [13],98.1%
same,Crystal form,[1]; [13],Unchanged
same,% Purity,[1]; [6],98.0%
same,Crystal form,[1]; [6],Unchanged
same,% Purity,"[1]; Initial condition, 0 days",98.0%
same,physical and chemical stability,[2],good physical and chemical stability
same,% Purity,[2]; [9],98.1%
same,% Purity,"[2]; 25° C./60% RH, 2 months, sealed aluminum foil bag",97.9%
same,Crystal form,[2]; [7],Unchanged
same,% Purity,[2]; [10],97.8%
same,% Purity,"[2]; 40° C./75% RH, 2 months, sealed aluminum foil bag",97.8%
same,Crystal form,[2]; [8],Unchanged
same,% Purity,[2]; Initial condition,98.0%
"O=C(O)c1ccc2nc(CN3CCC(c4cccc5c4O[C@@H](c4ccc(Cl)cc4F)CO5)CC3)n(C[C@@H]3CCO3)c2c1 [Crystal form α of malate salt, 2-((4-((S)-3-(4-chloro-2-fluorophenyl)-2,3-dihydrobenzo[b][1,4]dioxan-5-yl)piperidin-1-yl)methyl)-1-(((S)-oxetan-2-yl)methyl)-1H-benzo[d]imidazole-6-carboxylic acid]",% Purity,"[1]; 92.5% RH, 5 days, open, listed as crystal form a of malate salt",99.0%
same,% Purity,"[1]; Initial condition, 0 days, listed as crystal form a of malate salt",99.0%
same,% Purity,[2]; [11],97.1%
same,% Purity,[2]; Initial condition,99.0%
